From publication PMC12699179, “Investigating Metal and Fluorophore Controlled Intracellular Localization in Noble Metal Thiosemicarbazone Complexes” (Chemistry (Weinheim an Der Bergstrasse, Germany), 2025)
Read-outs that look alike come from different tables or passages of the source.

How the values were obtained:
[1] = test system: HeLa cells; assay: MTT antiproliferative / cell viability assay; type: cell-based; conditions: for IC50: mean of three ± SD; for in vitro activity compared to its ligand: 72 hours
Description: We investigated the antiproliferative activities of compounds 4‒8 against HeLa cells using the standard 3‐(4,5‐dimethylthiazol‐2‐yl)‐2,5‐diphenyltetrazolium bromide (MTT) assay (Table 2). […]
8. Cell viability studies […]
media. All biological experiments were thus conducted using 5 mM stock solutions in DMSO that were diluted with culture medium to produce a final concentration of 0.5% DMSO for all experiments unless specified otherwise.
Cell viability experiments
HeLa cells were harvested, pelleted by centrifugation, and resuspended in cell culture medium. The MTT assays were carried out in 96 well plates at a starting density of 1500 cells per well in 100 µL of culture medium. The next day, a dilution series of 7 different concentrations was prepared for each evaluated compound. After 24 h of incubation, the cells were treated with 100 µL of culture medium containing the prepared conc entrations of the respective compounds to reach a final volume of 200 µL in each well. As a negative control, one series of cells was treated with the vehicle only (0.5% DMSO). […]
MTT dye (2.5 mg/mL). After a further incubation of 2 h, the medium was aspired off, and 200 µL DMSO was added to solubilize the precipitated formazan dye. The formazan absorption was measured on a BMG LABTECH CLARIOstar Plus plate reader at 550 nm, using a reference wavelength of 620 nm. Using the mean absorbance of each set of identically treated wells, a dose-response curve was produced and normalized to the wells containing untreated cells to allow for plate-to-plate comparison. The dose-response curves were then subjected to non-linear regression analysis performed in Microsoft Excel to determine IC50 values. Data is shown as the mean of three replicate experiments, and error bars represent the standard

[2] = set-up: method as in PMID 40488845; conditions: 1H NMR, over 24 hours; cited from earlier work
[3] = test system: HeLa cells; set-up: method as in PMID 40488845; conditions: 24 hours incubation, highest tested concentration 15 µM; cited from earlier work
[4] = test system: HeLa cells; assay: Cellular uptake assay, metal content by ICP-MS; type: cell-based; conditions: 10 µM, 24 h, whole cell accumulation by ICP-MS
Description: Subsequently, we investigated the uptake of the conjugates 5 and 7 (at 10 µM) by incubating HeLa cells with the respective compounds for 24 hours and analyzing the final metal concentration inside the cells using inductively coupled plasma mass spectrometry (ICP‐MS). […]
HeLa cells were harvested and seeded in 100 mm × 21 mm cell culture dishes at a density of 200,000 cells per dish in 10 mL of growth medium. After 96 hours of incubation, when the cells had reached 90% confluency, the growth medium was aspirated and replaced with fresh medium containing 10 μM of a compound belonging to sets 5 or 7, respectively. The cells were incubated with the compound for 24 h, after which the medium was aspirated, and the cells were washed three times with 10 mL of PBS buffer. Subsequently, the washed cells were […]
trypsinized for 3 min, and the trypsin reaction was halted by the addition of 3 mL growth media.
Cells were suspended in the mixture, and the total cell count was determined using a Bio -Rad TC20 cell counter. The cell suspension was centrifuged at 5000 rpm for 5 minutes, and the supernatant was removed. The cells were then digested using 2 mL of aqua regia (3:1 v/v, 37% HCl and 70% HNO3, trace metal basis quality (Aldrich, purity ≥99.999%)) and sonicated at 60 °C for 16 h. The dissolved samples were then diluted with 13 mL of HPLC-grade water to reach a final volume of 15 mL. The total metal content of the samples was then determined via ICP-MS analysis (Thermo Scientific iCAP RQ, ASX-560) in Ar plasma in KED mode with He as collision gas. Reference to standards was made, and calibration curves were developed using commercial calibration standards (TraceCert®, Merck).
Fluorophore Compound Metal content
Table S3: Whole cell accumulation of compound sets 5 and 7 analyzed using ICP-MS and expressed in terms of total metal content. […]

[5] = Lipophilicity, n-octanol/PBS distribution (logD7.2); type: physicochemical; conditions: n-octanol/PBS distribution at pH 7.2; mean of three measurements ± SD
From the text: Having synthesized and assessed the stabilities of the complexes, we moved on to measure their lipophilicities at pH = 7.2 using the n‐octanol/PBS partition coefficient (Table 1).^[ [33], [34] ^] While the complexes were all highly lipophilic, the BODIPY‐conjugated complexes were more lipophilic than their coumarin analogs. In both sets of conjugates, the logD values followed the trend Pd(II) > Pt(II) > Au(III), with the monocationic Au(III) complexes being the least lipophilic.
7. Lipophilicity (logD7.2)
500 mL aliquots of purified octanol and PBS were thoroughly mixed in a 2 L separatory funnel and left overnight to saturate the two phases. For compound sets 5 and 7, 20 μM standard solutions were prepared in PBS-saturated octanol, respectively. 5 mL standard solutions containing the compound in question were then pipetted into 15 mL centrifuge tubes, and a 5 mL aliquot of the octanol-saturated PBS was added. The resulting samples were shaken for 10 min and allowed to rest overnight for 18 hours. The samples were then centrifuged for 30 min (3000 g, 20 °C), and aliquots of the octanol phase were analyzed via UV -Vis spectroscopy.
Experiments were conducted in triplicate. The concentrations of the compounds in the octanol phase were then quantified with respect to their λmax. […]
where A0 = absorbance of 20 μM compound in PBS-saturated octanol

[6] = Stability in cell culture medium by UV/Vis spectroscopy; type: physicochemical; conditions: 50 µM, DMEM with 10% fetal bovine serum, over 72 hours
Description: Likewise, the stability of these complexes was shown via UV/Vis spectrophotometry in cell culture medium over 72 hours.^[ [22] ^] The stability of the newly synthesized compounds was investigated similarly. […] However, the absorption profiles remained distinctly different from those of the corresponding free ligands, which was taken as evidence that the Pd(II) metal center remained chelated by the ligand.
(§1) Stability in Cell Culture Medium and Water
(§2) 5 mM stocks of the respective compounds in DMSO were diluted to produce a final concentration of 50 µM in water or Dulbecco's Modified Eagle's Medium (DMEM) containing 10% fetal bovine serum and 1% penicillin + streptomycin , respectively. The stability of the compounds was monitored via UV/Vis spectroscopy by recording the corresponding absorption profiles of the 50 µM solutions and comparing any changes to the profiles over […]

[7] = set-up: method as in PMID 40488845; conditions: UV/Vis, over 72 hours; cited from earlier work
[8] = Stability in water by UV/Vis spectroscopy; type: physicochemical; conditions: 50 µM, after 72 hours
Description: In the case of the Au(III) complexes, both the BODIPY conjugated complex 7a and the parent Dp44mT complex 8a ostensibly decomposed in cell culture medium, as their absorption profiles in media lacked the characteristic charge transfer band at λmax ∼440 nm observed in water. […] However, a slight shift in the λmax coupled with a decrease in absorbance was observed (Figure 4D).
as §1, §2

[9] = test system: HeLa cells; assay: Live-cell confocal microscopy, colocalization with organelle trackers; type: cell-based; conditions: 10 µM, 24 hours, ± standard deviation
Description: The subcellular behavior of the compounds was then assessed using a confocal microscope following incubation with HeLa cells (10 µM) for 6 hours and 24 hours, respectively (Figures S56, S57, and 5, 6). Moreover, we performed colocalization experiments with appropriate commercial organelle tracking dyes. As controls, we used the methyl and ethyl esters of 1 and 2, 1‐OMe and 2‐OEt, respectively. […] Moreover, the Pearson Correlation Coefficients (PCC) between 6 and the commercial lysosome tracker (LysoTracker deep red) channel improved over time from 0.63 to 0.81. Additionally, the distribution was distinct from 2‐OEt, corroborating that the Dp44mT scaffold directed the localization of the conjugates. Therefore, attaching BODIPY had no discernible effect on the lysosomal accumulation of Dp44mT.
Figure S55: Excitation (Exc) and emission (Em) spectra of BODIPY conjugates 6 and 7 at 10 µM in water. For (A) 6 and (B) 7a compounds, λex = 502 nm and λem = 519 nm; Slitwidth: […]; Sensitivity: low and medium, respectively. For (C) 7b and (D) 7c, λex = 519 nm and λem = 519 nm; Slitwidth: […]; Sensitivity: medium […]
collected at the appropriate emission wavelengths. […] The corresponding Pearson's Correlation Coefficients (PCCs) were calculated using Fiji (version 1.54f).[7] […]

[10] = Homo sapiens, 24 hours incubation, read-out: IC50 24 hours
[11] = Homo sapiens, 72 hours incubation, read-out: IC50 72 hours
[12] = 24 hours incubation, read-out: IC50 24 hours
[13] = 72 hours incubation, read-out: IC50 72 hours

| Compound | IC50 [1, 10] | IC50 [1, 11] | stability in DMSO-d6 [2] | effect on cell viability after 24 hours [3] | Metal content [4] | logD 7.2 [5] | IC50 [1, 12] | in vitro activity compared to its ligand [1] | IC50 [1, 13] | stability in cell culture medium [6] | stability in cell culture medium [7] | stability in water [8] | Pearson Correlation Coefficient (PCC) with ER Tracker [9] |
| --- | --- | --- | --- | --- | --- | --- | --- | --- | --- | --- | --- | --- | --- |
| CN(C)C(=S)NN=C(c1ccccn1)c1cccc(CCNC(=O)CCCNC(=O)c2cc3cc4c5c(c3oc2=O)CCCN5CCC4)n1 [Compound 4] | > 15 µM | 0.8 ± 0.1 µM | stable | did not affect cell viability | – | – | – | – | – | – | – | – | – |
| CN(C)C1=N[N+]2=C(c3cccc(CCNC(=O)CCCNC(=O)c4cc5cc6c7c(c5oc4=O)CCCN7CCC6)n3)c3cccc[n+]3[Au-]2([Cl])[S]1.F[P-](F)(F)(F)(F)F (stereo not shown) [Compound 5a] | – | – | – | – | 0.032 ± 0.016 pg/cell | 0.99 ± 0.02 | > 15 µM | fourfold lower activity | 3.1 ± 0.3 µM | similarly decomposed | – | – | – |
| CN(C)C1=N[N+]2=C(c3cccc(CCNC(=O)CCCNC(=O)c4cc5cc6c7c(c5oc4=O)CCCN7CCC6)n3)c3cccc[n+]3[Pt-2]2([Cl])[S]1 (stereo not shown) [Compound 5b] | – | – | stable | did not affect cell viability | 0.016 ± 0.005 pg/cell | 1.47 ± 0.03 | > 15 µM | – | 58.2 ± 4.3 µM | – | stable | – | – |
| CC1=CC(C)=[N+]2C1=Cc1ccc(CCC(=O)NCCc3cccc(C(=NNC(=S)N(C)C)c4ccccn4)n3)n1[B-]2(F)F [Compound 6] | > 15 µM | 0.8 ± 0.1 µM | – | – | – | – | – | – | – | – | – | – | – |
| CC1=CC(C)=[N+]2C1=Cc1ccc(CCC(=O)NCCc3cccc(C4=[N+]5N=C(N(C)C)[S][Au-]5([Cl])[n+]5ccccc54)n3)n1[B-]2(F)F.F[P-](F)(F)(F)(F)F (stereo not shown) [Compound 7a] | – | – | – | – | 0.035 ± 0.007 pg/cell | 1.53 ± 0.07 | > 15 µM | comparable to their respective ligands | 0.6 ± 0.1 µM | decomposed | – | only mild degradation | – |
| CC1=CC(C)=[N+]2C1=Cc1ccc(CCC(=O)NCCc3cccc(C4=[N+]5N=C(N(C)C)[S][Pt-2]5([Cl])[n+]5ccccc54)n3)n1[B-]2(F)F (stereo not shown) [Compound 7b] | – | – | – | – | 0.013 ± 0.002 pg/cell | 1.80 ± 0.04 | > 15 µM | – | 4.3 ± 0.3 µM | remained stable | – | – | 0.51 ± 0.01 |
| CN(C)C1=N[N+]2=C(c3ccccn3)c3cccc[n+]3[Au-]2([Cl])[S]1.[Cl][Au-][Cl] (stereo not shown) [Compound 8a] | – | – | – | – | – | – | > 15 µM | comparable to their respective ligands | 0.009 ± 0.0005 µM | decomposed | – | only mild degradation | – |
| CN(C)C(=S)NN=C(c1ccccn1)c1ccccn1 [Dp44mT, di‐2‐pyridylketone‐4,4‐dimethyl‐3‐thiosemicarbazone, reference compound] | > 15 µM | 0.009 ± 0.0003 µM | – | did not affect cell viability | – | – | – | – | – | – | – | – | – |
